Test results published in the supplement of paper PMC13380429.

Key:
Settings in all cases: 72 h
U2OS [1] = test: cell viability relative to DMSO; higher = less toxic
Caco-2 [2] = test: as above
Calu-3 [3] = test: as above
Vero E6 [4] = test: as above
HepG2 [5] = test: as above
U2OS [6] = test: drug sensitivity score (DSS) for viability; higher = more toxic; extreme values may be limits of the assay
Caco-2 [7] = test: as above
Calu-3 [8] = test: as above
Vero E6 [9] = test: as above
HepG2 [10] = test: as above
U2OS [11] = test: relative viability EC50 (midpoint between 100% and the lowest measured viability); higher = less toxic
Caco-2 [12] = test: as above
Calu-3 [13] = test: as above
Vero E6 [14] = test: as above
HepG2 [15] = test: as above

O=C(Nc1cc(C(F)(F)F)cc(C(F)(F)F)c1)c1cc(Cl)ccc1O [IKK-2-inhibitor-V]
cell viability (U2OS [1]; 1 nM): 95.7% | cell viability (U2OS [1]; 10 nM): 101% | cell viability (U2OS [1]; 100 nM): 89.7% | cell viability (U2OS [1]; 1000 nM): 82.9% | cell viability (U2OS [1]; 10000 nM): 11.2% | cell viability (Caco-2 [2]; 1 nM): 95.9% | cell viability (Caco-2 [2]; 10 nM): 89.4% | cell viability (Caco-2 [2]; 100 nM): 95.3% | cell viability (Caco-2 [2]; 1000 nM): 29.2% | cell viability (Caco-2 [2]; 10000 nM): 14.5% | cell viability (Calu-3 [3]; 1 nM): 98.4% | cell viability (Calu-3 [3]; 10 nM): 107% | cell viability (Calu-3 [3]; 100 nM): 98.3% | cell viability (Calu-3 [3]; 1000 nM): 99.8% | cell viability (Calu-3 [3]; 10000 nM): 13.8% | cell viability (Vero E6 [4]; 1 nM): 100% | cell viability (Vero E6 [4]; 10 nM): 90.5% | cell viability (Vero E6 [4]; 100 nM): 98.8% | cell viability (Vero E6 [4]; 1000 nM): 52.6% | cell viability (Vero E6 [4]; 10000 nM): 16.3% | cell viability (HepG2 [5]; 1 nM): 99.6% | cell viability (HepG2 [5]; 10 nM): 99.6% | cell viability (HepG2 [5]; 100 nM): 112% | cell viability (HepG2 [5]; 1000 nM): 17.2% | cell viability (HepG2 [5]; 10000 nM): 6.8% | drug sensitivity score (U2OS [6]): 7.7 | drug sensitivity score (Caco-2 [7]): 13.8 | drug sensitivity score (Calu-3 [8]): 4.8 | drug sensitivity score (Vero E6 [9]): 10.3 | drug sensitivity score (HepG2 [10]): 14.7 | relative viability EC50 (U2OS [11]): 1.77 µM | relative viability EC50 (Caco-2 [12]): 0.436 µM | relative viability EC50 (Calu-3 [13]): 3.14 µM | relative viability EC50 (Vero E6 [14]): 0.876 µM | relative viability EC50 (HepG2 [15]): 0.477 µM

O=C(NCc1ccc(Oc2ccccc2)cc1)c1nc(-c2cc(Br)c(O)c(Br)c2)no1 [IOWH032]
cell viability (U2OS [1]; 1 nM): 96.7% | cell viability (U2OS [1]; 10 nM): 98.5% | cell viability (U2OS [1]; 100 nM): 96.4% | cell viability (U2OS [1]; 1000 nM): 94.5% | cell viability (U2OS [1]; 10000 nM): 92.3% | cell viability (Caco-2 [2]; 1 nM): 104% | cell viability (Caco-2 [2]; 10 nM): 100% | cell viability (Caco-2 [2]; 100 nM): 99.1% | cell viability (Caco-2 [2]; 1000 nM): 88.4% | cell viability (Caco-2 [2]; 10000 nM): 81% | cell viability (Calu-3 [3]; 1 nM): 101% | cell viability (Calu-3 [3]; 10 nM): 102% | cell viability (Calu-3 [3]; 100 nM): 95.9% | cell viability (Calu-3 [3]; 1000 nM): 100% | cell viability (Calu-3 [3]; 10000 nM): 88.7% | cell viability (Vero E6 [4]; 1 nM): 102% | cell viability (Vero E6 [4]; 10 nM): 106% | cell viability (Vero E6 [4]; 100 nM): 104% | cell viability (Vero E6 [4]; 1000 nM): 98.2% | cell viability (Vero E6 [4]; 10000 nM): 79.9% | cell viability (HepG2 [5]; 1 nM): 91.3% | cell viability (HepG2 [5]; 10 nM): 102% | cell viability (HepG2 [5]; 100 nM): 86.7% | cell viability (HepG2 [5]; 1000 nM): 101% | cell viability (HepG2 [5]; 10000 nM): 76.1% | drug sensitivity score (U2OS [6]): 0 | drug sensitivity score (Caco-2 [7]): 1.4 | drug sensitivity score (Calu-3 [8]): 0 | drug sensitivity score (Vero E6 [9]): 0.8 | drug sensitivity score (HepG2 [10]): 0.8 | relative viability EC50 (U2OS [11]): > 10 µM | relative viability EC50 (Caco-2 [12]): > 10 µM | relative viability EC50 (Calu-3 [13]): > 10 µM | relative viability EC50 (Vero E6 [14]): > 10 µM | relative viability EC50 (HepG2 [15]): > 10 µM

O=C(Oc1ccc([N+](=O)[O-])cc1)N1CCN(Cc2cccc(Oc3ccccc3)c2)CC1 [JZL-195]
cell viability (U2OS [1]; 1 nM): 98.6% | cell viability (U2OS [1]; 10 nM): 100% | cell viability (U2OS [1]; 100 nM): 97.4% | cell viability (U2OS [1]; 1000 nM): 100% | cell viability (U2OS [1]; 10000 nM): 94.6% | cell viability (Caco-2 [2]; 1 nM): 107% | cell viability (Caco-2 [2]; 10 nM): 94.7% | cell viability (Caco-2 [2]; 100 nM): 86.7% | cell viability (Caco-2 [2]; 1000 nM): 93.7% | cell viability (Caco-2 [2]; 10000 nM): 95.4% | cell viability (Calu-3 [3]; 1 nM): 102% | cell viability (Calu-3 [3]; 10 nM): 104% | cell viability (Calu-3 [3]; 100 nM): 91.5% | cell viability (Calu-3 [3]; 1000 nM): 103% | cell viability (Calu-3 [3]; 10000 nM): 93.5% | cell viability (Vero E6 [4]; 1 nM): 97.3% | cell viability (Vero E6 [4]; 10 nM): 103% | cell viability (Vero E6 [4]; 100 nM): 104% | cell viability (Vero E6 [4]; 1000 nM): 92.9% | cell viability (Vero E6 [4]; 10000 nM): 99.7% | cell viability (HepG2 [5]; 1 nM): 91.8% | cell viability (HepG2 [5]; 10 nM): 99.5% | cell viability (HepG2 [5]; 100 nM): 103% | cell viability (HepG2 [5]; 1000 nM): 99.2% | cell viability (HepG2 [5]; 10000 nM): 82.4% | drug sensitivity score (U2OS [6]): 0 | drug sensitivity score (Caco-2 [7]): 0 | drug sensitivity score (Calu-3 [8]): 0 | drug sensitivity score (Vero E6 [9]): 0 | drug sensitivity score (HepG2 [10]): 0.5 | relative viability EC50 (U2OS [11]): > 10 µM | relative viability EC50 (Caco-2 [12]): > 10 µM | relative viability EC50 (Calu-3 [13]): > 10 µM | relative viability EC50 (Vero E6 [14]): > 10 µM | relative viability EC50 (HepG2 [15]): > 10 µM

O=C(O)c1ccc(N[C@@H]2O[C@H](CO)[C@@H](O)[C@H](O)[C@@H]2O)cc1 [K-MAP]
cell viability (U2OS [1]; 1 nM): 99.7% | cell viability (U2OS [1]; 10 nM): 95.4% | cell viability (U2OS [1]; 100 nM): 100% | cell viability (U2OS [1]; 1000 nM): 97.7% | cell viability (U2OS [1]; 10000 nM): 100% | cell viability (Caco-2 [2]; 1 nM): 92.7% | cell viability (Caco-2 [2]; 10 nM): 93.3% | cell viability (Caco-2 [2]; 100 nM): 89.5% | cell viability (Caco-2 [2]; 1000 nM): 91% | cell viability (Caco-2 [2]; 10000 nM): 95.8% | cell viability (Calu-3 [3]; 1 nM): 117% | cell viability (Calu-3 [3]; 10 nM): 99.5% | cell viability (Calu-3 [3]; 100 nM): 105% | cell viability (Calu-3 [3]; 1000 nM): 102% | cell viability (Calu-3 [3]; 10000 nM): 99% | cell viability (Vero E6 [4]; 1 nM): 94.7% | cell viability (Vero E6 [4]; 10 nM): 96.7% | cell viability (Vero E6 [4]; 100 nM): 93.2% | cell viability (Vero E6 [4]; 1000 nM): 98.8% | cell viability (Vero E6 [4]; 10000 nM): 109% | cell viability (HepG2 [5]; 1 nM): 90.8% | cell viability (HepG2 [5]; 10 nM): 98.1% | cell viability (HepG2 [5]; 100 nM): 95.4% | cell viability (HepG2 [5]; 1000 nM): 97.1% | cell viability (HepG2 [5]; 10000 nM): 97.5% | drug sensitivity score (U2OS [6]): 0 | drug sensitivity score (Caco-2 [7]): 0 | drug sensitivity score (Calu-3 [8]): 0 | drug sensitivity score (Vero E6 [9]): 0 | drug sensitivity score (HepG2 [10]): 0 | relative viability EC50 (U2OS [11]): > 10 µM | relative viability EC50 (Caco-2 [12]): > 10 µM | relative viability EC50 (Calu-3 [13]): > 10 µM | relative viability EC50 (Vero E6 [14]): > 10 µM | relative viability EC50 (HepG2 [15]): > 10 µM

CN[C@@H](C)C(=O)N[C@H](C(=O)N1CCC[C@H]1c1nc(C(=O)c2ccc(F)cc2)cs1)C1CCCCC1 [LCL-161]
cell viability (U2OS [1]; 1 nM): 104% | cell viability (U2OS [1]; 10 nM): 109% | cell viability (U2OS [1]; 100 nM): 99.7% | cell viability (U2OS [1]; 1000 nM): 97.8% | cell viability (U2OS [1]; 10000 nM): 94% | cell viability (Caco-2 [2]; 1 nM): 99.9% | cell viability (Caco-2 [2]; 10 nM): 97.9% | cell viability (Caco-2 [2]; 100 nM): 91.9% | cell viability (Caco-2 [2]; 1000 nM): 103% | cell viability (Caco-2 [2]; 10000 nM): 95.2% | cell viability (Calu-3 [3]; 1 nM): 106% | cell viability (Calu-3 [3]; 10 nM): 102% | cell viability (Calu-3 [3]; 100 nM): 97.6% | cell viability (Calu-3 [3]; 1000 nM): 86.4% | cell viability (Calu-3 [3]; 10000 nM): 77.2% | cell viability (Vero E6 [4]; 1 nM): 97.8% | cell viability (Vero E6 [4]; 10 nM): 102% | cell viability (Vero E6 [4]; 100 nM): 97.8% | cell viability (Vero E6 [4]; 1000 nM): 107% | cell viability (Vero E6 [4]; 10000 nM): 104% | cell viability (HepG2 [5]; 1 nM): 93.5% | cell viability (HepG2 [5]; 10 nM): 104% | cell viability (HepG2 [5]; 100 nM): 99.8% | cell viability (HepG2 [5]; 1000 nM): 83.4% | cell viability (HepG2 [5]; 10000 nM): 89.8% | drug sensitivity score (U2OS [6]): 0 | drug sensitivity score (Caco-2 [7]): 0 | drug sensitivity score (Calu-3 [8]): 2 | drug sensitivity score (Vero E6 [9]): 0 | drug sensitivity score (HepG2 [10]): 1.8 | relative viability EC50 (U2OS [11]): > 10 µM | relative viability EC50 (Caco-2 [12]): > 10 µM | relative viability EC50 (Calu-3 [13]): > 10 µM | relative viability EC50 (Vero E6 [14]): > 10 µM | relative viability EC50 (HepG2 [15]): > 10 µM

CCCC(CCC)C(=O)NCc1ccc2c(cnn2-c2ccccc2OC)c1 [M-25]
cell viability (U2OS [1]; 1 nM): 102% | cell viability (U2OS [1]; 10 nM): 100% | cell viability (U2OS [1]; 100 nM): 99.5% | cell viability (U2OS [1]; 1000 nM): 100% | cell viability (U2OS [1]; 10000 nM): 95.1% | cell viability (Caco-2 [2]; 1 nM): 99.2% | cell viability (Caco-2 [2]; 10 nM): 102% | cell viability (Caco-2 [2]; 100 nM): 97.1% | cell viability (Caco-2 [2]; 1000 nM): 95.3% | cell viability (Caco-2 [2]; 10000 nM): 79.6% | cell viability (Calu-3 [3]; 1 nM): 113% | cell viability (Calu-3 [3]; 10 nM): 95.5% | cell viability (Calu-3 [3]; 100 nM): 115% | cell viability (Calu-3 [3]; 1000 nM): 101% | cell viability (Calu-3 [3]; 10000 nM): 102% | cell viability (Vero E6 [4]; 1 nM): 94.5% | cell viability (Vero E6 [4]; 10 nM): 94.2% | cell viability (Vero E6 [4]; 100 nM): 96.6% | cell viability (Vero E6 [4]; 1000 nM): 91.5% | cell viability (Vero E6 [4]; 10000 nM): 88.8% | cell viability (HepG2 [5]; 1 nM): 99.8% | cell viability (HepG2 [5]; 10 nM): 108% | cell viability (HepG2 [5]; 100 nM): 101% | cell viability (HepG2 [5]; 1000 nM): 105% | cell viability (HepG2 [5]; 10000 nM): 87% | drug sensitivity score (U2OS [6]): 0 | drug sensitivity score (Caco-2 [7]): 1.2 | drug sensitivity score (Calu-3 [8]): 0 | drug sensitivity score (Vero E6 [9]): 0 | drug sensitivity score (HepG2 [10]): 0 | relative viability EC50 (U2OS [11]): > 10 µM | relative viability EC50 (Caco-2 [12]): > 10 µM | relative viability EC50 (Calu-3 [13]): > 10 µM | relative viability EC50 (Vero E6 [14]): > 10 µM | relative viability EC50 (HepG2 [15]): > 10 µM
